From US12290596B2, “Compositions and methods for the treatment of opioid overdose” (priority 2021, dated 2025)

Assay: Three-treatment crossover pharmacokinetics of IN nalmefene, three dosing regimens (Example 13)
Conditions: for half-life / AUC(0-t) / AUC(0-inf) / Cmax / Vd/F / concentration at 3 h / concentration at 4 h / concentration at 6 h / concentration at 8 h / concentration at 12 h / concentration at 18 h / concentration at 24 h / concentration at 48 h: human, plasma, other: intranasal (IN spray); for AUC(0-t) / AUC(0-inf) / Cmax / Vd/F: mean; for AUC(0-inf): AUCinf; for Vd/F: Vz/F; for concentration at 3 h / concentration at 4 h / concentration at 6 h / concentration at 8 h / concentration at 12 h / concentration at 18 h / concentration at 24 h / concentration at 48 h: T1 (3 mg IN, one spray in one nostril)
[1] = Treatment A (T1) 3 mg in one nostril
[2] = Treatment B (T2) 3 mg in each nostril (6 mg)
[3] = Treatment C (T3) 6 mg in one nostril
[4] = 3 mg, Treatment A (T1) 3 mg in one nostril
[5] = 6 mg, Treatment B (T2) 3 mg in each nostril (6 mg)
[6] = 6 mg, Treatment C (T3) 6 mg in one nostril

For `C=C1CC[C@@]2(O)[C@H]3Cc4ccc(O)c5c4[C@@]2(CCN3CC2CC2)[C@H]1O5` [Nalmefene, 17-cyclopropylmethyl-4,5α-epoxy-6-methylenemorphinan-3,14-diol], the “Dose-normalized Cmax lower after Treatment C (T3) compared to Treatment A (T1)” value (ANOVA) was “approximately 19%”, the “AUC0-2.5 min/D, mean” value [1] was 0.00276 ng·h/mL/mg and the “AUC0-5 min/D, mean” value [1] was 0.0206 ng·h/mL/mg. The “AUC0-7.5 min/D, mean” value [1] was 0.0728 ng·h/mL/mg, the “AUC0-10 min/D, mean” value [1] was 0.160 ng·h/mL/mg and the “AUC0-15 min/D, mean” value [1] was 0.393 ng·h/mL/mg. For the same molecule, the “AUC0-20 min/D, mean” value [1] was 0.639 ng·h/mL/mg, the “AUC0-30 min/D, mean” value [1] was 1.06 ng·h/mL/mg and the “AUCextrap, mean” value [1] was 4.22%. The “CL/F, mean” value [1] was 66.9 L/h, the “Cmax/D, mean” value [1] was 3.59 ng/mL/mg and the “AUC0-2.5 min/D, mean” value [2] was 0.0072 ng·h/mL/mg. For the same molecule, the “AUC0-5 min/D, mean” value [2] was 0.0369 ng·h/mL/mg, the “AUC0-7.5 min/D, mean” value [2] was 0.106 ng·h/mL/mg and the “AUC0-10 min/D, mean” value [2] was 0.202 ng·h/mL/mg. The “AUC0-15 min/D, mean” value [2] was 0.445 ng·h/mL/mg, the “AUC0-20 min/D, mean” value [2] was 0.691 ng·h/mL/mg and the “AUC0-30 min/D, mean” value [2] was 1.08 ng·h/mL/mg. The “AUCextrap, mean” value [2] was 3.61%, the “AUClast/D, mean” value [2] was 14.4 ng·h/mL/mg and the “CL/F, mean” value [2] was 69.2 L/h. The “Cmax/D, mean” value [2] was 3.70 ng/mL/mg, the “AUC0-2.5 min/D, mean” value [3] was 0.00455 ng·h/mL/mg and the “AUC0-5 min/D, mean” value [3] was 0.0244 ng·h/mL/mg. For the same molecule, the “AUC0-7.5 min/D, mean” value [3] was 0.0803 ng·h/mL/mg, the “AUC0-10 min/D, mean” value [3] was 0.165 ng·h/mL/mg and the “AUC0-15 min/D, mean” value [3] was 0.374 ng·h/mL/mg. The “AUC0-20 min/D, mean” value [3] was 0.588 ng·h/mL/mg, the “AUC0-30 min/D, mean” value [3] was 0.931 ng·h/mL/mg and the “AUCextrap, mean” value [3] was 4.18%. The “AUClast/D, mean” value [3] was 13.7 ng·h/mL/mg, the “CL/F, mean” value [3] was 73.3 L/h and the “Cmax/D, mean” value [3] was 3.15 ng/mL/mg. For the same molecule, the half-life (3 mg) was 11.4 h, the AUC(0-t) (3 mg, AUC0-5 min, Treatment A (T1) 3 mg in one nostril) was 0.0618 ng·h/mL and the AUC(0-t) (3 mg, AUC0-10 min, Treatment A (T1) 3 mg in one nostril) was 0.48 ng·h/mL. The AUC(0-t) (3 mg, AUC0-15 min, Treatment A (T1) 3 mg in one nostril) was 1.18 ng·h/mL, the AUC(0-t) (3 mg, AUC0-20 min, Treatment A (T1) 3 mg in one nostril) was 1.92 ng·h/mL and the AUC(0-t) (3 mg, AUC0-30 min, Treatment A (T1) 3 mg in one nostril) was 3.19 ng·h/mL. The AUC(0-t) (3 mg, AUC0-[…], Treatment A (T1) 3 mg in one nostril) was 0.219 ng·h/mL, the AUC(0-inf) [4] was 46.8 ng·h/mL and the AUC(0-t) (3 mg, AUClast, Treatment A (T1) 3 mg in one nostril) was 44.9 ng·h/mL. It also gave a Cmax [4] of 10.8 ng/mL, a Vd/F [4] of 1090 L and a concentration at 3 h (3 mg, Max) of 6.01 ng/mL. The concentration at 4 h (3 mg, Max) was 4.86 ng/mL, the concentration at 6 h (3 mg, Max) was 3.01 ng/mL and the concentration at 8 h (3 mg, Max) was 2.19 ng/mL. It also gave a concentration at 12 h (3 mg, Max) of 1.51 ng/mL, a concentration at 18 h (3 mg, Max) of 0.851 ng/mL and a concentration at 24 h (3 mg, Max) of 0.785 ng/mL. It also gave a concentration at 48 h (3 mg, Max) of 0.184 ng/mL, a concentration at 3 h (3 mg, Median) of 3.51 ng/mL and a concentration at 4 h (3 mg, Median) of 2.78 ng/mL. For the same molecule, the concentration at 6 h (3 mg, Median) was 2.07 ng/mL, the concentration at 8 h (3 mg, Median) was 1.34 ng/mL and the concentration at 12 h (3 mg, Median) was 0.985 ng/mL. It also gave a concentration at 18 h (3 mg, Median) of 0.581 ng/mL, a concentration at 24 h (3 mg, Median) of 0.37 ng/mL and a concentration at 48 h (3 mg, Median) of 0.088 ng/mL. It also gave a concentration at 12 h (3 mg, Min) of 0.727 ng/mL, a concentration at 18 h (3 mg, Min) of 0.37 ng/mL and a concentration at 24 h (3 mg, Min) of 0.261 ng/mL. For the same molecule, the concentration at 48 h (3 mg, Min) was 0 ng/mL, the half-life (6 mg) was 11.3 h and the AUC(0-t) (6 mg, AUC0-5 min, Treatment B (T2) 3 mg in each nostril (6 mg)) was 0.222 ng·h/mL. For the same molecule, the AUC(0-t) (6 mg, AUC0-5 min, Treatment C (T3) 6 mg in one nostril) was 0.146 ng·h/mL, the AUC(0-t) (6 mg, AUC0-10 min, Treatment B (T2) 3 mg in each nostril (6 mg)) was 1.21 ng·h/mL and the AUC(0-t) (6 mg, AUC0-10 min, Treatment C (T3) 6 mg in one nostril) was 0.988 ng·h/mL. The AUC(0-t) (6 mg, AUC0-15 min, Treatment B (T2) 3 mg in each nostril (6 mg)) was 2.67 ng·h/mL, the AUC(0-t) (6 mg, AUC0-15 min, Treatment C (T3) 6 mg in one nostril) was 2.24 ng·h/mL and the AUC(0-t) (6 mg, AUC0-20 min, Treatment B (T2) 3 mg in each nostril (6 mg)) was 4.14 ng·h/mL. The AUC(0-t) (6 mg, AUC0-20 min, Treatment C (T3) 6 mg in one nostril) was 3.53 ng·h/mL, the AUC(0-t) (6 mg, AUC0-30 min, Treatment B (T2) 3 mg in each nostril (6 mg)) was 6.46 ng·h/mL and the AUC(0-t) (6 mg, AUC0-30 min, Treatment C (T3) 6 mg in one nostril) was 5.58 ng·h/mL. For the same molecule, the AUC(0-inf) [5] was 89.5 ng·h/mL, the AUC(0-inf) [6] was 85.7 ng·h/mL and the AUC(0-t) (6 mg, AUClast, Treatment B (T2) 3 mg in each nostril (6 mg)) was 86.2 ng·h/mL. It also gave an AUC(0-t) (6 mg, AUClast, Treatment C (T3) 6 mg in one nostril) of 82.1 ng·h/mL, a Cmax [5] of 22.2 ng/mL and a Vd/F [5] of 1120 L. It also gave a Vd/F [6] of 1190 L.
